Data on 31 molecules can be found in US20060128724A1, “Pyrazole-substituted aminoheteroaryl compounds as protein kinase inhibitors” (AGOURON PHARMACEUTICALS, INC., priority 2004, published 2006).

Like-named read-outs stand apart in the source and are kept apart here.

The target in the assay is T1, c-MET (HGFR) (Homo sapiens, UniProt P08581).
T1 construct: purchased Upstate 14-526
Kind of assay: HGFR Continuous-Coupled Spectrophotometric Assay. The assay is classed as biochemical. As to conditions: for Ki: Met-2 substrate peptide, 50 nM HGFR, 37° C. The method in brief: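 Tyrosine kinase activity of 50 nM HGFR on the activation-loop Met-2 peptide, followed as NADH consumption at 340 nm over 10 min at 37 °C in a pyruvate kinase/LDH coupled system, HEPES pH 7.5 buffer with MgCl2 and DTT.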

T1 sequence (P08581 974-1390 limits assumed): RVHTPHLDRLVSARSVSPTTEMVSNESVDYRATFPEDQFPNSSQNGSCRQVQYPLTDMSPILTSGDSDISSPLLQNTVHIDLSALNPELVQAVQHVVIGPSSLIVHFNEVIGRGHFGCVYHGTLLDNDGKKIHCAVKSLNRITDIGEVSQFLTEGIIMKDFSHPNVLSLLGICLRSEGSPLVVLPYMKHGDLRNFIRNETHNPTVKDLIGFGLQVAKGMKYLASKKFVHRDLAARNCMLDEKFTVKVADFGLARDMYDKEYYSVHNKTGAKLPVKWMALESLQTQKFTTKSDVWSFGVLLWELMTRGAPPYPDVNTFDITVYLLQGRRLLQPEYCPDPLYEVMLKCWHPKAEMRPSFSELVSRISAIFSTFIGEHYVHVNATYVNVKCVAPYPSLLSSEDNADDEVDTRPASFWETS

By Ki is commonly meant a measure of affinity in units of concentration, obtained from inhibition or displacement. For the molecule `CC(Oc1cc(-c2cnn(CC3CCN(C(=O)CO)CC3)c2)cnc1N)c1c(Cl)ccc(F)c1Cl` (stereo not shown) [Example 85, 1-[4-(4-{6-Amino-5-[1-(2,6-dichloro-3-fluoro-phenyl)-ethoxy]-pyridin-3-yl}-pyrazol-1-ylmethyl)-piperidin-1-yl]-2-hydroxy-ethanone], the Ki (read-out: c-Met Ki) is 30 nM.

Regarding `COC(=O)C1CC(n2cc(-c3cnc(N)c(OC(C)c4c(Cl)ccc(F)c4Cl)c3)cn2)CN1` (stereo not shown) [Example 88, 4-(4-{6-Amino-5-[1-(2,6-dichloro-3-fluoro-phenyl)-ethoxy]-pyridin-3-yl}-pyrazol-1-yl)-pyrrolidine-2-carboxylic acid methyl ester], where the note is “read-out: c-Met Ki”, the Ki worked out at 34 nM.

For the molecule `C[C@@H](Oc1nc(Br)cnc1N)c1c(Cl)ccc(F)c1Cl` [5-bromo-3-[(R)-1-(2,6-dichloro-3-fluoro-phenyl)-ethoxy]-pyrazin-2-ylamine], the Ki (read-out: c-Met Ki) turned out to be 796 nM.

`CC(Oc1cc(-c2cnn(C3CN(CCO)C3)c2)cnc1N)c1c(Cl)ccc(F)c1Cl` (stereo not shown) [Example 102, 2-[3-(4-{6-amino-5-[1-(2,6-dichloro-3-fluorophenyl)ethoxy]pyridin-3-yl}11H-pyrazol-1-yl)azetidin-1-yl]ethanol]: the Ki (read-out: c-Met Ki) amounted to 50 nM.

In the case of `Cc1noc(C)c1Cn1cc(-c2cnc(N)c(OC(C)c3c(Cl)ccc(F)c3Cl)c2)cn1` (stereo not shown) [Example 93, 3-[1-(2,6-dichloro-3-fluorophenyl)ethoxy]-5-{1-[(3,5-dimethylisoxazol-4-yl)methyl]-1H-pyrazol-4-yl}pyridin-2-amine], the Ki (read-out: c-Met Ki) came out at 69 nM.

As to “4-(4-{6-Amino-5-[1- (2,6-dichloro-3-fluoro- phenyl)-ethoxy]-pyridin- 3-yl}-pyrazoI-1-yl)- piperidine-1- carboxylic acid dimethylamide [Example 120]”, the Ki (read-out: Met Ki) came out at 16 nM.

For `CC(Oc1cc(-c2cnn(C(C)(C)C(=O)NCCO)c2)cnc1N)c1c(Cl)ccc(F)c1Cl` (stereo not shown) [Example 35, 2-(4-{6-Amino-5-[1-(2,6-dichloro-3-fluoro-phenyl)-ethoxy]-pyridin-3-yl}-pyrazol-1-yl)-N-(2-hydroxy-ethyl)-isobutyramide], the Ki (read-out: c-Met Ki) was 60 nM.

As to `CC(Oc1cc(-c2cnn(C)c2)cnc1N)c1c(Cl)c(F)cc(OC2CCCNC2)c1Cl` (stereo not shown) [Example 156, 3-{1-(2,6-Dichloro-3-fluoro-5-(piperidin-3-yloxy)-phenyl]-ethoxy}-5-(1-methyl-1H-pyrazol-4-yl)-pyridin-2-ylamine], where the note is “read-out: Met Ki”, the Ki came to 36 nM.

`CC(Oc1cc(-c2cnn(C3CC4CCC(C3)N4C)c2)cnc1N)c1c(Cl)ccc(F)c1Cl` (stereo not shown) [Example 115, 3-[1-(2,6-dichloro-3-fluorophenyl)ethoxy]-5-[1-(8-methyl-8-azabicyclo[3.2.1]oct-3-yl)-1H-pyrazol-4-yl]pyridin-2-amine]: under “read-out: c-Met Ki”, the Ki came out at 9 nM.

Consider `CC(Oc1cc(-c2cnn(C(C)(C)C(=O)NCCN3CCCC3)c2)cnc1N)c1c(Cl)ccc(F)c1Cl` (stereo not shown) [Example 21, 2-(4-{6-Amino-5-[1-(2,6-dichloro-3-fluoro-phenyl)-ethoxy]-pyridin-3-yl}-pyrazol-1-yl)-N-(2-pyrrolidin-1-yl-ethyl)-isobutyramide], for which, where the note is “read-out: c-Met Ki”, the Ki was 60 nM.

Consider `COCC(=O)N1CCC(n2cc(-c3cnc(N)c(OC(C)c4c(Cl)ccc(F)c4Cl)c3)cn2)CC1` (stereo not shown) [Example 124, 1-[4-(4-{6-Amino-5-[1-(2,6-dichloro-3-fluoro-phenyl)-ethoxy]-pyridin-3-yl}-pyrazol-1-yl)-piperidin-1-yl]-2-methoxy-ethanone], for which, where the note is “read-out: Met Ki”, the Ki is 14 nM.

On to `CC(Oc1cc(-c2cnn(CC3CCNCC3)c2)cnc1N)c1c(Cl)ccc(F)c1Cl` (stereo not shown) [Example 81, 3-[1-(2,6-Dichloro-3-fluoro-phenyl)-ethoxy]-5-(1-piperidin-4-ylmethyl-1H-pyrazol-4-yl)-pyridin-2-ylamine], for which the Ki (read-out: c-Met Ki) came to 56 nM.

In the case of `CC(Oc1cc(-c2cnn(C(C)(C)C(=O)O)c2)cnc1N)c1c(Cl)ccc(F)c1Cl` (stereo not shown) [Example 12, 2-(4-{6-Amino-5-[1-(2,6-dichloro-3-fluoro-phenyl)-ethoxy]-pyridin-3-yl}-pyrazol-1-yl)-2-methyl-propionic acid], where the note is “read-out: c-Met Ki”, the Ki came to 180 nM.

Take `CC(Oc1cc(-c2cnn(C[C@H](O)CO)c2)cnc1N)c1c(Cl)ccc(F)c1Cl` (stereo in doubt) [Example 87, 3-(4-{6-Amino-5-[1-(2,6-dichloro-3-fluoro-phenyl)-ethoxy]-pyridin-3-yl}-pyrazol-1-yl)-propane-1,2-diol]: the Ki (read-out: c-Met Ki) was 28 nM.

Consider `C[C@@H](Oc1cc(-c2cnn(C3CCNCC3)c2)cnc1N)c1c(F)ccc(F)c1Cl` [Example 72, 3-[(R)-1-(2-Chloro-3,6-difluoro-phenyl)-ethoxy]-5-(1-piperidin-4-yl-1H-pyrazol-4-yl)-pyridin-2-ylamine], for which the Ki (read-out: c-Met Ki) was 90 nM.

For the molecule `CC(Oc1cc(-c2cnn(C(C)(C)CN3CC[C@H](O)C3)c2)cnc1N)c1c(Cl)ccc(F)c1Cl` (stereo partly drawn) [Example 61, (S)-1-[2-(4-{6-Amino-5-[1-(2,6-dichloro-3-fluoro-phenyl)-ethoxy]-pyridin-3-yl}-pyrazol-1-yl)-2-methyl-propyl]-pyrrolidin-3-ol], the Ki (read-out: c-Met Ki) is 70 nM.

Consider `CC(Oc1cccnc1N)c1cc(F)ccc1C#N` (stereo not shown) [Example 129, 2-[1-(2-Amino-pyridin-3-yloxy)-ethyl]-4-fluoro-benzonitrile], for which, for the setting “read-out: Met Ki”, the Ki is 6460 nM.

Consider `CC(Oc1cc(-c2cnn(C3CCNCC3)c2)cnc1N)c1c(Cl)c(F)cc(F)c1Cl` (stereo not shown) [Example 146, 3-[1-(2,6-Dichloro-3,5-difluoro-phenyl)-ethoxy]-5-(1-piperidin-4-yl-1H-pyrazol-4-yl)-pyridin-2-ylamine], for which, under “read-out: Met Ki”, the Ki worked out at 30 nM.

Regarding `CC(Oc1cc(-c2cnn(C3CCN(CC(N)=O)CC3)c2)cnc1N)c1c(Cl)ccc(F)c1Cl` (stereo not shown) [Example 98, 2-[4-(4-{6-amino-5-[1-(2,6-dichloro-3-fluorophenyl)ethoxy]pyridin-3-yl}-1H-pyrazol-1-yl)piperidin-1-yl]acetamide], the Ki (read-out: c-Met Ki) is 7 nM.

On to `CC(Oc1cc(-c2cnn(C(C)(C)CN(C)C)c2)cnc1N)c1c(Cl)ccc(F)c1Cl` (stereo not shown) [Example 60, 3-[1-(2,6-Dichloro-3-fluoro-phenyl)-ethoxy]-5-[1-(2-dimethylamino-1,1-dimethyl-ethyl)-1H-pyrazol-4-yl]-pyridin-2-ylamine], for which the Ki (read-out: c-Met Ki) came out at 84 nM.

`COc1cc(Cl)c(C(C)Oc2cc(-c3cnn(C4CCNCC4)c3)cnc2N)c(Cl)c1OC` (stereo not shown) [Example 154, 3-(1-(2,6-Dichloro-3-dimethoxy-phenyl)-ethoxy]-5-(1-piperidin-4-yl-1H-pyrazol-4-yl)-pyridin-2-ylamine]: the Ki (read-out: Met Ki) was found to be 105 nM.

On to `CC(Oc1cc(-c2cnn(CC(C)(C)C)c2)cnc1N)c1c(Cl)ccc(F)c1Cl` (stereo not shown) [Example 23, 3-[1-(2,6-Dichloro-3-fluoro-phenyl)-ethoxy]-5-[1-(2,2-dimethyl-propyl)-1H-pyrazol-4-yl]-pyridin-2-ylamine], for which, for the setting “read-out: c-Met Ki”, the inhibition constant (Ki) is 120 nM.

`CC(Oc1cc(-c2cnn(C3CCN(C(=O)CN(C)C)CC3)c2)cnc1N)c1c(Cl)ccc(F)c1Cl` (stereo not shown) [Example 44, 1-[4-(4-{6-Amino-5-[1-(2,6-dichloro-3-fluoro-phenyl)-ethoxy]-pyridin-3-yl}-pyrazol-1-yl)-piperidin-1-yl]-2-dimethylamino-ethanone]: the Ki (read-out: c-Met Ki) was determined as 10 nM.

As to `CC(Oc1cc(-c2cnn(C[C@H]3CCCN3)c2)cnc1N)c1c(Cl)ccc(F)c1Cl` (stereo partly drawn) [Example 63, 3-[1-(2,6-Dichloro-3-fluoro-phenyl)-ethoxy]-5-(1-(R)-1-pyrrolidin-2-ylmethyl-1H-pyrazol-4-yl)-pyridin-2-ylamine], the Ki (read-out: c-Met Ki) came out at 72 nM.

As for `CC(Oc1cc(-c2cnn(CC3CC4CCC3O4)c2)cnc1N)c1c(Cl)ccc(F)c1Cl` (stereo not shown) [Example 28, 3-[1-(2,6-Dichloro-3-fluoro-phenyl)-ethoxy]-5-[1-(7-oxa-bicyclo[2.2.1]hept-2-ylmethyl)-1H-pyrazol-4-yl]-pyridin-2-ylamine], for the setting “read-out: c-Met Ki”, the Ki came to 60 nM.

For `CC(Oc1cc(-c2cnn(C3CCN(C(=O)OCCO)CC3)c2)cnc1N)c1c(Cl)ccc(F)c1Cl` (stereo not shown) [Example 95, 2-hydroxyethyl 4-(4-{6-amino-5-[1-(2,6-dichloro-3-fluorophenyl)ethoxy]pyridin-3-yl}-1H-pyrazol-1-yl)piperidine-1-carboxylate], the Ki (read-out: c-Met Ki) came to 10 nM.

As to `CC(Oc1cc(-c2cnn(C3CCCS(=O)(=O)C3)c2)cnc1N)c1c(Cl)ccc(F)c1Cl` (stereo not shown) [Example 117, 3-[1-(2,6-dichloro-3-fluorophenyl)ethoxy]-5-[1-(1,1-dioxidotetrahydro-2H-thiopyran-3-yl)-1H-pyrazol-4-yl]pyridin-2-amine], the Ki (read-out: c-Met Ki) was 14 nM.

Consider `CC(Oc1cc(-c2cnn(C(C)(C)C(=O)N3CC[C@@H](O)C3)c2)cnc1N)c1c(Cl)ccc(F)c1Cl` (stereo partly drawn) [Example 18, 2-(4-{6-Amino-5-[1-(2,6-dichloro-3-fluoro-phenyl)-ethoxy]-pyridin-3-yl}-pyrazol-1-yl)-1-((R)-3-hydroxy-pyrrolidin-1-yl)-2-methyl-propan-1-one], for which, where the note is “read-out: c-Met Ki”, the Ki was 270 nM.

For the molecule `CC(Oc1cc(-c2cnn(CC3CN(C(C)C)C3)c2)cnc1N)c1c(Cl)ccc(F)c1Cl` (stereo not shown) [Example 108, 3-[1-(2,6-dichloro-3-fluorophenyl)ethoxy]-5-{1-[(1-isopropylazetidin-3-yl)methyl]-1H-pyrazol-4-yl}pyridin-2-amine], the Ki (read-out: c-Met Ki) is 57 nM.

`CCN(CC)CCNC(=O)C(C)(C)n1cc(-c2cnc(N)c(OC(C)c3c(Cl)ccc(F)c3Cl)c2)cn1` (stereo not shown) [Example 24, 2-(4-{6-Amino-5-[1-(2,6-dichloro-3-fluoro-phenyl)-ethoxy]-pyridin-3-yl}pyrazol-1-yl)-N-(2-diethylamino-ethyl)-isobutyramide]: the Ki (read-out: c-Met Ki) turned out to be 220 nM.

For the molecule `Nc1ncc(-c2cn[nH]c2)cc1OC1CCCCc2ccc(F)cc21` (stereo not shown) [Example 54, 3-(3-Fluoro-6,7,8,9-tetrahydro-5H-benzocyclohepten-5-yloxy)-5-(1H-pyrazol-4-yl)-pyridin-2-ylamine], the “c-Met % Inhibition” value (test concentration not given) was 21%.
